Measurements from article PMC11509018, “Evaluation of the Role of Tanshinone I in an In Vitro System of Charcot-Marie-Tooth Disease Type 2N” (International Journal of Molecular Sciences, 2024).
Changes are numbered by the printed parent chain.

Legend:
AlaRS^N71Y = target: T1, AlaRS^N71Y (Homo sapiens, UniProt P49588, N71Y); experiment: Proteolytic digestion assay (trypsin, SDS-PAGE); conditions: three hours
T1 construct: made in house; host or cells: E. coli BL21 (DE3), pET-21a
T1 sequence (P49588 1-968 N71Y): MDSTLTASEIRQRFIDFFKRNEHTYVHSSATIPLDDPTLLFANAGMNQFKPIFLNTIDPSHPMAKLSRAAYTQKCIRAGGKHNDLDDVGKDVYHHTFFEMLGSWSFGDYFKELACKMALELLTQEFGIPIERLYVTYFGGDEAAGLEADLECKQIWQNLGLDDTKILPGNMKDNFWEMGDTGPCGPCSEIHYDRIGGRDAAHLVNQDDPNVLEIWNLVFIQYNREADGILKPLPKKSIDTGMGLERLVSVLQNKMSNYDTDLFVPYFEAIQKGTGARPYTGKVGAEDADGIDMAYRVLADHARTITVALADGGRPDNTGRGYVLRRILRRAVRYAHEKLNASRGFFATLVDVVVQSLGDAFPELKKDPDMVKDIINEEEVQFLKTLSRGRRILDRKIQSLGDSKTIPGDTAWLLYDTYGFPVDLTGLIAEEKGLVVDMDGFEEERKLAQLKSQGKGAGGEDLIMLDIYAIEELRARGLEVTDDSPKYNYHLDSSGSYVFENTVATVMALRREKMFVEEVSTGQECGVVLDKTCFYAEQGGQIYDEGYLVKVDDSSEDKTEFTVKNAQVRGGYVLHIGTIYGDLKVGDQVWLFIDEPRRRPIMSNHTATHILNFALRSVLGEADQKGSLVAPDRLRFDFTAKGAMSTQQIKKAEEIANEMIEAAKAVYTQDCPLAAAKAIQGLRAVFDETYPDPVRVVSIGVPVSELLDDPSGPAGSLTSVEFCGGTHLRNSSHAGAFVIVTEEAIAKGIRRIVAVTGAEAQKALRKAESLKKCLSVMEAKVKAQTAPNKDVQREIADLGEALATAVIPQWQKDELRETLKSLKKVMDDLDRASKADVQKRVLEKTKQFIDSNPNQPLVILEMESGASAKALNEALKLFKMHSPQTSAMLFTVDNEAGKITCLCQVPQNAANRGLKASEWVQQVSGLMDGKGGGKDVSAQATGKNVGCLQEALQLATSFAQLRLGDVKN
Description: (§1) Furthermore, we examined the interaction of Tanshinone I with additional AlaRS CMT mutants capable of binding to Nrp1 and causing conformational changes by BLI and proteolysis assays on additional related mutants.
(§2) Figure 5 BLI and proteolytic digestion assay of AlaRS mutants with Tanshinone I. Binding sensorgrams for the interaction of Tanshinone I with immobilized AlaRS^R329H (A), AlaRS^G102R (C), AlaRS^R326W (E), and AlaRS^E337K (G). Each sensorgram contains five curves generated from five different concentrations. The KD values are presented as the mean ± SD and experiments were performed in triplicate. The AlaRS^N71Y (B), AlaRS^G102R (D), AlaRS^R326W (F), and AlaRS^E337K (H) proteins (in the presence and absence of Tanshinone I) were incubated with trypsin at different concentrations for three hours before the reactions were quenched, and the products were separated by SDS-PAGE.

AlaRS^E337K = target: T2, AlaRS^E337K (Homo sapiens, UniProt P49588, E337K); experiment: Proteolytic digestion assay (trypsin, SDS-PAGE); conditions: three hours
T2 construct: made in house; host or cells: E. coli BL21 (DE3), pET-21a
T2 sequence (P49588 1-968 E337K): T1 sequence (P49588 1-968 N71Y) with Y71N, E337K
Description: as §1, §2

Effect on proteolytic fragments / conformation (AlaRS^N71Y): significant conformational change
Compound: Cc1coc2c1C(=O)C(=O)c1c-2ccc2c(C)cccc12 [Tanshinone I]
Effect on proteolytic fragments / conformation (AlaRS^E337K): altered band patterns after Tanshinone I treatment
